# Reference: US20230404933A1, “NON-CATIONIC SOFT POLYPHENOL NANOCAPSULES FOR EFFECTIVE […] […] OF SMALL INTERFERING RNA (siRNA) FOR CANCER TREATMENT” (Purdue Research Foundation, priority 2020, published 2023)
# Test: siRNA stability in 50% FBS (gel electrophoresis)
# Format: in vitro ADME, bovine
# Protocol: siRNA-loading capacity of MSN^a was evaluated by the agarose gel retardation assay. siRNA-loaded MSNs (MSN^a/siRNA) complexes were prepared varying the MSN^a/siRNA weight ratio from 1/1 to 50/1. The complexes were loaded in 2% agarose gel and run in 0.5×TAE buffer at 80 V for 40 min. The gel was stained with ethidium bromide, and siRNA bands were detected at 302 nm using Azure C300 (Dublin, CA, USA). For stability testing, siRNA or NPs were challenged with 166 U/mL RNase for 15 min±8 mg/mL SDS for additional 2.5 h or 50% FBS for 1 h, both at 37° C., and analyzed by agarose gel electrophoresis. To quantify siRNA loaded in Nanosac (O/siRNA/pD), the NPs were dispersed in dilute HCl solution (pH 3) and incubated for 72 h. The samples were centrifuged at 16,000 rcf for 10 min, and the supernatant and pellet were separately analyzed by agarose gel electrophoresis.
substance,measurement,value
"siPD-L1: PD-L1 siRNA, sense 5′-CCCACAUAAAAAACAGUUGTT-3′ (SEQ ID NO: 1), antisense SEQ ID NO: 2 (antisense CAACUGUUUUUUAUGUGGGTT; chemistry not given here)",stability of siRNA in 50% FBS,completely degraded
